Data as given in patent US10973880B2, “Compositions and methods for treating pulmonary hypertension” (Acceleron Pharma Inc., priority 2016, dated 2021).

Columns and labels:
[1] = test system: rat model of pulmonary arterial hypertension (PAH), monocrotaline (MCT) induced; assay: monocrotaline rat model of pulmonary arterial hypertension; format: in vivo, Sprague Dawley rats
Description: The effects of an ActRIIA-mFc fusion protein (ActRIIA-mFc homodimer as described in Example 1), an ALK4-Fc-ActRIIB-Fc heterodimer (as described in Examples 12 and 13), and sildenafil (a phosphodiesterase-5 inhibitor approved for the treatment of PAH) were examined in a rat model of pulmonary arterial hypertension (PAH). In this model, Sprague Dawley rats received a […] injection of monocrotaline (MCT) to induce PAH 24 hours prior to start of therapy.
Rats were separated into different treatment groups (10 mice per group): 1) treatment with MCT (60 mg/kg administered i.p. as a single dose at day 1 of study) and Tris buffered saline (i.p. as 1 ml/kg, every three days) (vehicle treatment group), 2) treatment with an ActRIIA-mFc polypeptide (10 mg/kg administered i.p. every three days) and MCT (60 mg/kg administered i.p. as a single dose at day 1 of study), 3) treatment with an ALK4-Fc:ActRIIB-Fc heterodimer (10 mg/kg administered i.p. every three days) and MCT (60 mg/kg administered i.p. as a single dose at day 1 of study), 4) treatment with sildenafil (30 mg/kg administered orally twice daily) and MCT (60 mg/kg administered i.p. as a single dose at day 1 of study), and 5) control rats (Tris buffered saline administered i.p. as 1 ml/kg, every three days). Rats were treated for 28 days. Body weights were recorded prior to first dose on Day 1 and then weekly throughout the study.
On day 28, rats were anesthetized by an intraperitoneal injection of ketamine/xylazine (80/10 mg/kg). An incision was made in the neck, and a jugular vein was isolated and ligated anteriorly. A fluid-filled pressure catheter was introduced into the right jugular vein to measure pulmonary artery pressure (PAP). Another incision was made in the inguinal region, and femoral artery was isolated and ligated anteriorly. A Millar pressure catheter was introduced into a femoral artery to measure systolic arterial pressure, diastolic pressure, and heart rate. Mean arterial pressure and right PAP were monitored using the Notocord HEM (Croissy sur Seine, Frnace) v3.5 data capture system for approximately 5-10 minutes until stable measurements were obtained. During the measurements, rats were maintained at approximately 37° C. on a heating pad and body temperature was monitored throughout the procedure with a rectal temperature probe. At the conclusion of the procedure, rats were euthanized, and the hearts and lungs were removed. The entire heart was weighed. Next, the atria were removed and the left ventricle with septum (LV+S) was separated from the right ventricle (RV). The ventricles were weighed separately. Hypertrophy was assessed, in part, by calculating RV/LV+S. The lungs were also weighed.
Similar trends were observed on vessel muscularity based on histopathologic scoring. After staining tissue samples to detect αSMA/elastin, 100 pulmonary arterioles, between 10 μm and 50 μm in size, per animal were categorized as non-muscularized, partially muscularized, or completely muscularized. Pulmonary arterioles from vehicle treated rats were determined to be 62.3% completely muscularized, 36.4% partially muscularized, and 1.4% non-muscularized. […] Histopathological scoring of smooth muscle hypertrophy of pulmonary arterioles were also recorded as follows: 0 (normal), 1 (minimal), 2 (mild), 3 (moderate), or 4 (marked).

[2] = test system: Sugen Hypoxia model of PAH (semaxanib/hypoxia); assay: Sugen Hypoxia rat model of PAH; format: in vivo; details: 0 normal, 1 minimal, 2 mild, 3 moderate, 4 marked
Description: The effects of an ActRIIA-mFc fusion protein (ActRIIA-mFc homodimer as described in Example 1 and sildenafil (a phosphodiesterase-5 inhibitor approved for the treatment of PAH) were further examined the Sugen Hypoxia model of PAH. In this model, rats receive daily doses of semaxanib and are placed in a low oxygen environment (approximately 13% oxygen) to induce PAH 24 hours prior to start of therapy.
Rats were separated into different treatment groups (10 mice per group): 1) treatment with semaxanib (200 mg/kg administered s.c. as a single dose daily)/hypoxia and Tris buffered saline (administered i.p. as 1 ml/kg, every three days) (vehicle treatment group), 2) treatment with an ActRIIA-mFc polypeptide (10 mg/kg administered i.p. every three days) and semaxanib (200 mg/kg administered s.c. as a single dose daily)/hypoxia, 3) treatment with sildenafil (30 mg/kg administered orally twice daily) and semaxanib (200 mg/kg administered s.c. as a single dose daily)/hypoxia, and 4) control rats (Tris buffered saline administered i.p. as 1 ml/kg, every three days). Rats were treated for 28 days. Body weights were recorded prior to first dose on Day 1 and then weekly throughout the study.
On day 28, rats were anesthetized by an intraperitoneal injection of ketamine/xylazine (80/10 mg/kg). […] Hypertrophy was assessed, in part, by calculating RV/LV+S. The lungs were also weighed. […]

ActRIIA-mFc: extracellular domain of human ActRIIa fused to a mouse Fc domain with a minimal linker; homodimer
smooth muscle hypertrophy of pulmonary arterioles, average histopathological score ([1]; 0 normal, 1 minimal, 2 mild, 3 moderate, 4 marked): 1.6 score
improvement in body weight ([1]; 28 days, compared to monocrotaline treated rats, proteins 10 mg/kg i.p. every three days, sildenafil 30 mg/kg orally twice daily): did not show improvement
smooth muscle hypertrophy of pulmonary arterioles, average histopathological score [2]: 1.4 score
